Columns and labels:
cotton = details: solutions sprayed directly on vegetative growth; cited from earlier work
vegetative cover / weeds = details: cited from earlier work
wheat = details: effect no longer observed at 69 days post application; cited from earlier work
Globodera pallida eggs = assay: Globodera pallida egg hatching assay after 2-week exposure of encysted eggs; type: in vivo
Description: An initial experiment was conducted to determine possible effects of S. alba seed meal on hatch of Globodera pallida eggs. Measuring the percentage egg hatch is a viability indicator and provides an indication of the potential impact from a treatment. In this experiment, Globodera pallida encysted eggs were exposed to S. alba seed meal for 2 weeks in small containers containing a sand:soil mix. The sand:soil mix without seed meal was used as the non-treated control. […] The experiment had two treatments: 1) a non-treated bare soil control; or 2) S. alba seed meal. Each treatment included 5 replicates. Eggs from each of these treatments were exposed to either PRD or SE for 2 weeks, at which time hatched infectious 2nd stage Globodera pallida juveniles (J2) were counted. The objective of this experiment was to determine if 4-hydroxybenzyl alcohol (HBA), the product of enzymatic hydrolysis of the glucosinolate sinalbin contained in S. alba seed meal, could be responsible for the observed enhanced hatch. In an experiment similar to Example 1, encysted eggs were exposed to either HBA, or S. alba seed (yellow mustard) meal. The non-treated eggs were placed in bare soil mix only. After 2 weeks, exposed eggs were placed in hatching assays in either PRD or in soil extract, and hatched J2 were counted. In this experiment, the impact of different application rates of HBA on percent Globodera pallida hatch was investigated (FIG. 13). Again, hatch of the non-treated control was higher in PRD than in soil extract. […] An increase in hatch of approximately 60% occurred with a 1 μmol/ml pre-treatment with HBA prior to PRD exposure.

[1] = pH stability of 4-hydroxybenzyl isothiocyanate in buffered aqueous solutions; type: physicochemical
Description: Partially purified 4-hydroxybenzyl isothiocyanate was prepared by suspending 500 grams of S. alba seed meal in 2 liters of deionized water and extracting the mixture with 500 milliliters of ethyl acetate for 24 hours. The ethyl acetate extract was separated by decanting the top organic layer after centrifugation, dried with 100 g of anhydrous sodium sulfate overnight, and concentrated under vacuum at laboratory temperature. The crude 4-hydroxybenzyl isothiocyanate extract was further purified by preparative column chromatography on silica gel (500 grams). […] Content of 4-hydroxybenzyl isothiocyanate within the fractions was verified by GC-MS using instrumentation and conditions as described previously. Fractions containing 4-hydroxybenzyl isothiocyanate were combined and concentrated under vacuum at laboratory temperature producing a yellowish, viscous fluid displaying only 4-hydroxybenzyl isothiocyanate and pentane/methylene chloride solvent peaks in the GC chromatogram. No further concentration of 4-hydroxybenzyl isothiocyanate was achieved using vacuum distillation because of its instability.
Actual pH values of the buffers of 3.03, 3.52, 4.02, 4.49, 5.00, 5.46, 5.91, and 6.52 were verified using an Orion model 420A pH meter (Orion Research, Boston). […]

In the case of `N#CS` [SCN^−, ionic thiocyanate], the “rate at which cotton defoliation was possible” value (cotton) is listed as 8.6 kilograms SCN^−/ha, the “rate necessary for complete plant kill” value (vegetative cover / weeds; for 4 months) is listed as 1,366 kg SCN^−/ha and the “rate removing a large percentage of the weeds” value (vegetative cover / weeds; in vivo) is listed as 137 kilograms SCN^−/ha. The “application rate causing inhibition of wheat germination” value (wheat) was 342 kilograms SCN^−/ha.
For `OCc1ccc(O)cc1` [HBA, 4-hydroxybenzyl alcohol], the increase in hatch (Globodera pallida eggs; 1 μmol/ml pre-treatment with HBA prior to PRD exposure) was “approximately 60%”, the “hatch enhancement, comparison of application rates” value (Globodera pallida eggs; 1 μmol/ml versus 2, 4, 8 μmol/ml) was “enhanced hatch of Globodera pallida more effectively than higher rates tested” and the “increase in Globodera pallida egg hatch compared to non-treated control” value (Globodera pallida eggs; 2-week exposure in soil mix, then hatched in potato root diffusate (PRD)) was 50%.
For `Oc1ccc(CN=C=S)cc1` [4-hydroxybenzyl isothiocyanate], the half-life at 0.1 % v/v (partially purified extract in buffer) ([1]; 0.1 M sodium citrate/citric acid buffer (aqueous), pH 7.0 (overview text)) was under 5 min and the “stability in aqueous media” value ([1]; aqueous media) was “unstable”.

— patent US11602147B2, “Nematode control” (University of Idaho, priority 2017, dated 2023)
